The nature of the data set: Safety and tolerability. The format is in vivo, healthy participants (human). The settings on record: healthy adults, single oral dose.
Setting [1] is: safety analysis set, by system organ class.

Here are results for 1 compound from article PMC9871843 (Clinical Kidney Journal, 2022).

On to `C=CC[C@@H]1/C=C(\C)C[C@H](C)C[C@H](OC)[C@H]2O[C@@](O)(C(=O)C(=O)N3CCCC[C@H]3C(=O)O[C@H](/C(C)=C/[C@@H]3CC[C@@H](O)[C@H](OC)C3)[C@H](C)[C@@H](O)CC1=O)[C@H](C)C[C@@H]2OC` [Tacrolimus, tacrolimus], for which the “participants in whom adverse events were reported” value is given as “seven”. Moreover, the “Participants with any AE” value (safety analysis set, N as in column head) is listed as 7 (22.6) n (%). In addition, under setting [1], the “Participants with AEs: Cardiac disorders” value is given as 0 n (%); the “Participants with AEs: Eye disorders” value was 1 (3.2) n (%); the “Participants with AEs: Gastrointestinal disorders” value is 2 (6.5) n (%); the “Participants with AEs: General disorders and administration site conditions” value is on record as 1 (3.2) n (%). Under setting [1], the “Participants with AEs: Infections and infestations” value is recorded as 0 n (%); the “Participants with AEs: Injury, poisoning and procedural complications” value was 1 (3.2) n (%); the “Participants with AEs: Musculoskeletal and connective tissue disorders” value is on record as 1 (3.2) n (%); the “Participants with AEs: Nervous system disorders” value was 3 (9.7) n (%). For the same compound, under setting [1], the “Participants with AEs: Renal and urinary disorders” value is recorded as 0 n (%); the “Participants with AEs: Respiratory, thoracic and mediastinal disorders” value is reported as 0 n (%).
